Several values for one entry are separate records, joined by “and”; a condition that tells them apart may be missing. Identical values can stand only once. Like-named read-outs stand apart in the source and are kept apart here.
Experiments:
[1] = Oxygen radical absorbance capacity (ORAC-FL) assay; settings: mean Trolox equivalents with SEM, at least three independent experiments, 37 °C
Experimental: Antioxidant properties were analyzed using an oxygen radical absorbance capacity (ORAC) assay at 37 °C [27]. Solutions of the fluorescent probe fluorescein at 100 nM and test ligands at concentrations between 20 µM and 6.25 µM were incubated for 15 min in potassium phosphate buffer (75 mM, pH 7.4) protected from light in black 96-well plates at 37 °C. Then, 2,2′-azobis (2-amidinopropane) dihydrochloride (AAPH) was added as a peroxyl radical generator. The fluorescence intensity ([…]) was measured every minute for 90 min. 6-Hydroxy-2,5,7,8-tetramethylchroman-2-carboxylic acid (Trolox) was used as a standard at concentrations between 20 µM and 6.25 µM. Data were obtained in duplicate from at least three independent experiments and evaluated using GraphPad Prism 7.02. Fluorescence intensity was normalized to that of the blank (without AAPH). The area under the fluorescence decay curve for each antioxidant (AUCantioxidant) and for the negative control without antioxidants (AUCnegative control) were calculated for each concentration by summing the fluorescence intensities at each time point. AUCnegative control was subtracted from the AUCantioxidant to calculate the net AUC. Linear regression of the net AUC against the corresponding antioxidant concentration was performed. The ratios of the antioxidant and Trolox slopes from the same experiment were calculated. Thus, ORAC values were expressed as Trolox equivalents [TE], and caffeic acid was used as a reference.

hH3R [2] = molecular target: T1, hH3R (Homo sapiens, UniProt Q9Y5N1); test: hH3R radioligand displacement assay ([3H]Nα-methylhistamine, HEK-293-hH3R membranes); format: binding
T1 construct: expressed in transfected cells; host or cells: HEK-293 cells stably expressing hH3R
Experimental: Radioligand displacement assays were performed on the membrane fractions of HEK-293 cells stably expressing hH3R455, which occurs mainly in the brain, as described previously with slight modifications. HEK-293-hH3R cells were grown in Dulbecco’s Modified Eagle Medium (DMEM) supplemented with 10% FBS, 100 µg/mL penicillin, 100 units/mL streptomycin, and 10 mM HEPES solution at 37 °C in a humidified atmosphere of 5% CO2. To prepare membrane fractions, cells were washed in a phosphate-buffered saline (PBS) solution and harvested. The cells were centrifuged at 3000× g for 10 min at 4 °C and homogenized with Ultraturrax® in ice-cold binding buffer (75 mM Tris-HCl, 10 mM MgCl2, 100 mM NaCl, pH 7.4). The homogenate was centrifuged twice (20,000× g, 20 min, 4 °C) and reconstituted in an ice-cold binding buffer. Test ligands, radiolabeled ligands, and membrane fractions (20 µg/well) were added to 96-well plates to a final assay volume of 200 µL. After 90 min of incubation with shaking at 25 °C, a cell harvester was used to separate bound from free ligands by filtration through GF/B filters pretreated with 0.3% (m/v) polyethylenimine. Radioactivity was determined by liquid scintillation counting. […] The test ligands were evaluated at concentrations between 100 µM and 0.03 nM. […] Specific binding was calculated by subtracting non-specific binding from the raw data. Data were obtained in duplicate from at least three independent experiments and analyzed using GraphPad Prism 7.02. using a nonlinear regression. The Cheng–Prusoff equation was used to calculate Ki values from the IC50 values. Mean values and 95% confidence intervals were calculated using −log(Ki) and converted to nanomolar concentrations.
S4. hH3R Radioligand Displacement Assay
Radioligand displacement assays were performed on the membrane fractions of HEK-293 cells stably expressing hH3R. Cultivation of hH3R-HEK-293 cells and membrane preparation was performed as described previously. [3H]Nα-Methylhistamine was used as the radiolabeled probe at a final […]
-log(Ki) was used to calculate mean values and 95% confidence intervals.
Figure S13. hH3R competition binding curve of compounds 6a
Figure S14. hH3R competition binding curve of compounds 6b […]

SH-SY5Y cells = test: Cytotoxic effects on SH-SY5Y cells after 24 h (alamar blue viability assay); format: cell-based; settings: for effects on cell viability: concentrations below 1 µM
Experimental: (§1) The cytotoxic effects of the tested ligands on neuroblastoma SH-SY5Y cells were determined using the alamar blue viability assay. SH-SY5Y cells were grown in Minimum Essential Medium Eagle (MEME) supplemented with non-essential amino acids, 10% FBS, 100 µg/mL penicillin, 100 units/mL streptomycin, and 2 mM L-glutamine at 37 °C in a humidified atmosphere of 5% CO2. SH-SY5Y cells were seeded in 96-well plates at a density of 8.0 × 10^3 cells per well and grown at 37 °C in a humidified atmosphere of 5% CO2. 24 h after seeding, the test ligands were added at concentrations between 30 µM and 1 nM in a final assay volume of 100 µL per well and incubated for 24 h. Cells treated with 1-methyl-4-phenylpyridinium iodide (MPP+) served as a positive control for cytotoxic effects. The concentration of DMSO was limited to 1% for all the assay points. The medium supplemented with the test compounds was discarded, and 100 µL of resazurin solution in RPMI-1640 medium (44 µM) was added. After two hours of incubation at 37 °C in a humidified atmosphere of 5% CO2, fluorescence intensity ([…]) was determined. Data were obtained in duplicate from at least three independent experiments. LC50 values were evaluated using GraphPad Prism 7.02. using a nonlinear regression. Mean values and 95% confidence intervals were calculated using −log(Ki) and converted to nanomolar concentrations.

[3] = as above; format: cell-based; settings: human, SH-SY5Y neuroblastoma cells, 24 h, 95% confidence interval, at least three independent experiments, read-out: LC50
Experimental: as §1

hH3R [4] = molecular target: T1, hH3R; settings: cited from earlier work
[5] = Table 2, from Ki, read-out: pKi (converted)
[6] = [3H]Nα-methylhistamine displacement on HEK-293-hH3R membranes, 95% confidence interval, at least three independent experiments, read-out: hH3R Ki

T1 sequence (Q9Y5N1 whole entry): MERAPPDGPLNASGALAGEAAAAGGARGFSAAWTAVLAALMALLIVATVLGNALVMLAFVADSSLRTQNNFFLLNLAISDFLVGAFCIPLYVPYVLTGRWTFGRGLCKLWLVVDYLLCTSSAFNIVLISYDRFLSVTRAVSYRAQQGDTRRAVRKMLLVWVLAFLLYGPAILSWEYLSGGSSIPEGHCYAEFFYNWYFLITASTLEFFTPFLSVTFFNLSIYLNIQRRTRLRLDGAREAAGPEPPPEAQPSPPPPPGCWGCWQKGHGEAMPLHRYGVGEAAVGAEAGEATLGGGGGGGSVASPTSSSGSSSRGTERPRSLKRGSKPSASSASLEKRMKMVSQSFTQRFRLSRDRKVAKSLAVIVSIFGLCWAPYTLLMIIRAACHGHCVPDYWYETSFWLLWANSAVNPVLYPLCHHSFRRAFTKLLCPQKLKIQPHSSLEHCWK

SMILES	ORAC [1]	Ki (hH3R [2]; [5]) [nM]	Ki (hH3R [2]; [6]) [nM]	CC50 at 24 h [3] [nM]	other results
O=C(O)/C=C/c1ccc(O)c(O)c1 [Caffeic acid, reference compound]	3.08 ± 0.13 TE	–	–	–	–
c1ccc([P+](CCCCOc2ccc(OCCCN3CCCCC3)cc2)(c2ccccc2)c2ccccc2)cc1 [Compound 6a]	1.04 ± 0.03 TE	32	32	40000	effects on cell viability (SH-SY5Y cells): no significant effects on cell viability
[Br-].c1ccc([P+](CCCCCOc2ccc(OCCCN3CCCCC3)cc2)(c2ccccc2)c2ccccc2)cc1 [Compound 6b, Triphenyl-(5-(4-(3-(piperidin-1-yl)propoxy)phenoxy)pentyl)phosphonium bromide]	0.70 ± 0.01 TE	17.6	17.6	21800	effects on cell viability (SH-SY5Y cells): no significant effects on cell viability
c1ccc([P+](CCCCCCOc2ccc(OCCCN3CCCCC3)cc2)(c2ccccc2)c2ccccc2)cc1 [Compound 6c, Triphenyltriphenyl-(6-(4-(3-(piperidin-1-yl)propoxy)phenoxy)hexyl)phosphonium bromide]	0.54 TE and 0.54 ± 0.03 TE	31.5	31.5	11200	–
c1ccc([P+](CCCCCCCCOc2ccc(OCCCN3CCCCC3)cc2)(c2ccccc2)c2ccccc2)cc1 [Compound 6d, Triphenyltriphenyl-(8-(4-(3-(piperidin-1-yl)propoxy)phenoxy)octyl)phosphonium bromide]	0.89 ± 0.16 TE	20.4	20.4	2690	–
c1ccc([P+](CCCCCCCCCOc2ccc(OCCCN3CCCCC3)cc2)(c2ccccc2)c2ccccc2)cc1 [Compound 6e, Triphenyltriphenyl-(9-(4-(3-(piperidin-1-yl)propoxy)phenoxy)nonyl)phosphonium bromide]	1.07 ± 0.06 TE	14.1	14.1	< 1000	CC50 (SH-SY5Y cells; 24 h, 95% confidence interval, at least three independent experiments, read-out: LC50 (the source's name)): 910 nM
c1ccc([P+](CCCCCCCCCCOc2ccc(OCCCN3CCCCC3)cc2)(c2ccccc2)c2ccccc2)cc1 [Compound 6f, Triphenyltriphenyl-(10-(4-(3-(piperidin-1-yl)propoxy)phenoxy)decyl)phosphonium bromide]	0.59 ± 0.06 TE	–	67.4	2610	Ki (hH3R [2]; Table 2, biological activity repeated next to the IFD results, read-out: Ki): 67.4 nM
CN1CCc2ccc(OCCCN3CCCCC3)cc2C1=O [Compound I]	–	–	–	–	Ki (hH3R [4]; Figure 1, read-out: hH3R Ki): 23 nM
CCNC(=O)[C@H]1C[C@@](F)(c2ccc(CN3CCCC3)c(F)c2)C1 [PF-03654746]	–	–	–	–	Ki (hH3R [4]; Table 2, co-crystallized ligand of 7F61, read-out: Ki): 3.2 nM
CNCCc1cnc[nH]1 [[^3H]N^α-methylhistamine, reference compound]	–	–	–	–	Kd (hH3R [2]; probe used at a final concentration of 2 nM, read-out: Kd of the radiolabeled probe): 3.08 nM
